From patent US12390435B2, “Electrophiles and electrophile pro-drugs as RAD51 inhibitors” (University of Pittsburgh—Of the Commonwealth System of …, priority 2018, dated 2025)
“Also recorded” adds a separate entry of the source.

Assays:
MDA-MB-231 cells [1] = assay: CellTiter-Glo relative growth (luminescent ATP); assay type: cell-based; details: for EC50 for growth inhibition, compared between compounds: ATP Celltiter Glo proliferation assay, n=3
Description: HEK 293T, MDA-MB-231, MDA-MB-468, Hs578T and BT-549 cells (American Type Culture Collection) were cultured at 37° C. with 5% CO2 in Dulbecco's modified Eagle's medium containing (DMEM) (Gibco) supplemented with 5% FBS (HyClone), 100 units/ml penicillin, […] streptomycin (Gibco), non-essential amino acids (Gibco) and 2 mM 1-glutamine (Gibco). Doxorubicin (Selleckchem), cisplatin (Sigma) or olaparib (Selleckchem) were dissolved in DMSO or DMF (cisplatin). […] Pure NO2-OA was diluted in DMSO and added to cells after solvation in assay media. Relative cell numbers were compared by measuring the luminescent signal generated by ATP using the CellTiter-Glo (Promega) assay. Cells were plated in a 96-well plate at 5,000 (MDA-MB-231) or 6,600 (BT549 or Hs578T) cells per well.
Data represent the mean±SEM from 3 independent experiments unless otherwise noted. A p value<0.05 was considered statistically significant. Non-linear curves were generated in GraphPad Prism 7.0 (GraphPad Software, La Jolla, CA, USA) for statistical analysis. EC50 values and standard error were calculated from three independent experiments utilizing a non-linear dose response variable slope model. Significance was tested by one-way ANOVA for multiple groups with Tukey posttest or by t-test when groups were less than three. RAD51 foci number was analyzed with ImageJ. Nuclear boundaries were individually identified in more than 50 cells per treatment group in three independent experiments.
The growth of BT-549 cells was not affected. […] MDA-MB-231 cells were plated in a 96 well plate and treated with talazoparib (0.01-75 μM) plus OA-NO2 or NDA-NO2 (0.2-12 μM) daily for 3 days. Growth inhibition (relative cell numbers) of MDA-MB-231 cells was determined by luminescent detection of ATP (CellTiter-Glo) (FIG. 1K).

MDA-MB 231 TNBC cells = assay: Metabolism in MDA-MB-231 cells by HPLC-MSMS; assay type: in vitro ADME; details: for omega hydroxylation and carboxylation: 10 uM; for omega hydroxylation and carboxylation / cysteine adduct formation: cell media and cell homogenate
Description: FIG. 18. […] Growth inhibition was assessed using the ATP Celltiter Glo proliferation assay and compounds were used at different concentration to determine their EC50. CP-1 had the lowest EC50 followed by 7-NDA and 8-NDA. […] The different metabolic pathways of 7-NDA and 8-NDA have been characterized in MDA-MB-231 TNBC cells. MDA-MB 231 TNBC cells incorporate and metabolize 7-NDA and 8-NDA through beta oxidation (FIG. 19). Inactivation of the active 7-NDA and 8-NDA nitroalkene group is achieved through reduction to a nitroalkane (FIG. 20).
FIG. 19. […] Dinor 7-NDA corresponds to one beta-oxidation cycle while tetranor corresponds to two beta oxidation cycles. […] Formation of both Dinor and Tetranor 8-NDA are shown. Chromatograms correspond to the detection by HPLC-MSMS of the different compounds in negative ion mode using MRMs on a triple quadrupole mass spectrometer.
FIG. 20. […] Chromatograms correspond to the detection by HPLC-MSMS of the different compounds in negative ion mode using MRMs on a triple quadrupole mass spectrometer.
FIG. 21. […] Chromatograms correspond to the detection by HPLC-MSMS of the different using specific MRM transitions on a triple quadrupole mass spectrometer.
FIG. 22. […] Dicarboxylic acids of both 7-NDA and 8-NDA have been detected in cell media and cell homogenate from cell treated with 10 uM 7-NDA or 8-NDA. Chromatograms correspond to the detection by HPLC-MSMS of the different using specific MRM transitions on a triple quadrupole mass spectrometer.

IKKβ = assay: TNFα-induced IKKβ phosphorylation, IκBα phosphorylation and degradation; assay type: cell-based
Description: All studies used two TNBC cell lines, MDA-MB-231 and MDA-MB-468. […] For IκBα degradation, cells were treated as described above and stimulated with 20 ng/mL TNFα for 10 min.
(§1) Western blotting was performed. 20-60 μg of total lysates per lane were loaded on 7%, 10%, or 12% SDS-PAGE and transferred onto nitrocellulose or polyvinylidene difluoride membranes (Bio-Rad). The membranes were probed with primary antibodies against caspase-3, multi-drug resistance protein-1 (MRP1), poly [ADP ribose] polymerase-1 (PARP-1), ubiquitin, RelA; cyclin D1, p21, caspase-9, MRP4, IKKβ, pIKKβ, IκBα, or pIκBα (Cell Signaling); caspase-8 (R&D Systems). Samples were normalized to β-actin (Sigma-Aldrich) or GAPDH (Trevigen).

MDA-MB-468 cells = assay: Matrigel cell invasion assay; assay type: cell-based; details: NO2-OA/NO2-SA 5 μM, JSH-23 10 μM, TNFα 20 ng/mL, 24 hr
Description: Cells were then suspended in migration media and placed in the top well of invasion chambers (EMD Millipore). Chemoattractant (5% FBS) was placed in the lower chamber for 24 hr at 37° C. to attract invasive cells. Cells were then harvested and invasion rates were determined according to manufacturer's protocol. Three individual experiments were done, and statistical comparison among treatments was determined by one-way analysis of variance followed by Tukey post-test.

[2] = tested on: MDA-MB-231 and MDA-MB-468 cells; assay: FACS cell cycle analysis; assay type: cell-based; details: MCF-10A, MDA-MB-231 and MDA-MB-468 cells, 24 hr
Description: Adherent and nonadherent cells were collected, centrifuged at 2000×rpm for 10 min, washed with ice-cold phosphate-buffered saline, fixed with cold 70% ethanol at 4° C. for 30 mins, and stained with 50 μg/mL propidium iodide (Sigma-Aldrich). FACS analysis was performed at the University of Pittsburgh Department of Immunology Unified Flow Core Facility. Three individual experiments were done, and statistical comparisons among phases (G0/G1, S, and G2/M) were determined by one-way analysis of variance followed by Tukey post-test.

[3] = tested on: NF-κB transcriptional activity; assay: NF-κB luciferase reporter; assay type: cell-based; details: MDA-MB-231 and MDA-MB-468 cells, 5 μM 2 hr then TNFα 20 ng/mL 4 hr
Description: Luciferase-chemiluminescence-based analysis of NF-κB transcriptional activity was performed. MDA-MB-231 and MDA-MB-468 cells (˜70% confluence) in 12-well plates were transiently transfected with a NF-κB-luciferase reporter plasmid (Stratagene, La Jolla, CA) with Lipofectamine 3000. […] Each transfection was performed in triplicate. Luciferase activity was measured using the Dual-luciferase assay kit (Promega). Relative light units (RLU) were measured using a 96-well plate luminometer, according to the manufacturer's instructions (Victor II, PerkinElmer Life Sciences). Protein concentration was determined using the BCA Assay (Thermo Fisher Scientific). Data represents the ratio of treated samples to controls in the context of mean RLU/protein content, +/−SD. Three individual experiments were done, and statistical significance was determined by Kruskal-Wallis test followed by Dunn's post-test with Bonferroni corrections for multiple comparisons.

MDA-MB-231 cells [4] = assay: Cell growth assay (FluoReporter dsDNA); assay type: cell-based; details: TNBC cell lines MDA-MB-231 and MDA-MB-468, 48 hr
Description: Cells were plated at a cell density of 5000 cells per well in 96-well plates. […] Cells were counted using the FluoReporter dsDNA quantitation kit (Molecular Probes) according to the manufacturer's instructions. Fluorescence was measured using a SpectraMax M2 plate reader (Molecular Devices). […] Three individual experiments were done (n=5/each), and statistical comparison between two cell lines across doses was determined by two-way analysis of variance followed by Tukey post-test.

[5] = tested on: RelA in MDA-MB-231 and MDA-MB-468 cells; assay: RelA protein level and polyubiquitination; assay type: cell-based; details: 5 μM, 24 hr
Description: Lysates were clarified by centrifugation at 14,000×g for 10 min. Protein lysates (1 mg) were incubated with anti-RelA antibody and Protein G/A conjugated agarose beads (EMD Millipore, Bedford, MA) at 4° C., overnight. Immunoprecipitation fraction were obtained by centrifugation at 14,000×g for 1 min at RT and washed with lysis buffer three times. The immunoprecipitated RelA was resolved by 8% SDSPAGE gel, and transferred to nitrocellulose membrane (Bio-Rad) for immunoblotting probed with an anti-ubiquitin antibody (Santa Cruz Biotechnology). The blot was then stripped and probed with an anti-RelA antibody to assess amounts of RelA protein pull-down.
as §1

[6] = tested on: human high grade serous ovarian cancer cells; assay: Cell growth/viability by luminescent ATP with PARP inhibitors; assay type: cell-based; details: with Olaparib or Talazoparib
Description: Cell growth/viability is determined from luminescent detection of cell ATP concentration.

[7] = tested on: homologous recombination (DR-GFP, U2OS cells); assay: DR-GFP HR reporter assay in U2OS cells; assay type: cell-based; details: FIG. 16B
Description: Measurements of NHEJ, HR, Alt-EJ and SSA assays were performed as previously described. HR activity was measured by counting GFP-positive cells by flow cytometry at the MWRI flow cytometry core using a BD LSRII (BD Biosciences). RAD51 overexpressing cells were generated by stable transfection of pLVX RAD51 IRES Neo and selection with geneticin (Invitrogen).
U2OS cells were prepared as above, but 5 h following compound treatment, cells were transferred into the Incucyte Zoom (Essen) live-cell imaging automated fluorescence microscope at 37° C. with 5% CO2. Cell confluence and green object count per mm2 were determined using Incucyte Zoom software. Green object count per field was normalized to cell confluency to correct for NO2—OA-induced effects on cell proliferation.
NO2-OA-dependent effects on HR DNA repair were further investigated by utilizing a DRGFP reporter assay. This analysis quantifies intracellular recombination of an integrated cDNA cassette of two tandem non-fluorescent GFP constructs following introduction of an I-SceI cleavage to the system by measuring the fluorescent GFP protein that is produced following successful recombination. […] A novel strategy was used to measure the kinetics of changes in HR in live cells by using automated fluorescence microscopy to track the emergence of GFP positive cells over time in monolayers, as opposed to making static measurements of detached cells using flow cytometry. […] This was indicated by an absence of changes in the number of GFP positive cells following I-SceI cleavage after 48 h by flow cytometric analysis or over 68 h by live-cell fluorescence microscopy (FIGS. 2C, 2D).

CCCCCCCCCCC/C=C(\CCCCCC(=O)O)[N+](=O)[O-] [7-NDA, 7-NO2-nonadec-7-enoic acid]
EC50 for growth inhibition, compared between compounds (MDA-MB-231 cells [1]): more sensitive to 7-NDA and 8-NDA when compared to OA-NO2
IC50 compared with NO2-OA (MDA-MB-231 cells [1]; FIG. 12): lower IC50 compared NO2-OA
Combination index (CI), Chou-Talalay (MDA-MB-231 cells [1]; with talazoparib (0.01-75 μM), 0.2-12 μM, daily 3 days, CI<1 is synergistic): better combination indices; also recorded: better CI values compared to OA-NO2
formation of active nitroalkene beta-oxidation metabolites (dinor, tetranor) (MDA-MB 231 TNBC cells): does not result in the formation of active, nitroalkene containing metabolites
omega hydroxylation and carboxylation (MDA-MB 231 TNBC cells): omega hydroxylation and carboxylation
cysteine adduct formation (MDA-MB 231 TNBC cells): form cysteine adducts that are detected in cell media and cell homogenate

CCCCCCCCCCC/C(=C\CCCCCC(=O)O)[N+](=O)[O-] [8-NDA, 8-NO2-nonadec-7-enoic acid]
EC50 for growth inhibition, compared between compounds (MDA-MB-231 cells [1]): more sensitive to 7-NDA and 8-NDA when compared to OA-NO2
formation of active nitroalkene beta-oxidation metabolites (dinor, tetranor) (MDA-MB 231 TNBC cells): result in the active (structures having the reactive nitroalkene moiety) beta-oxidation products
omega hydroxylation and carboxylation (MDA-MB 231 TNBC cells): omega hydroxylation and carboxylation
cysteine adduct formation (MDA-MB 231 TNBC cells): form cysteine adducts that are detected in cell media and cell homogenate

Cc1ccc(S(=O)(=O)/C=C/C#N)cc1 [BAY11-7082, 3[(4-methylphenyl)sulfonyl]-(2E)-propenenitrile, reference compound]
TNFα-induced IKKβ phosphorylation (IKKβ; NO2-OA 5 μM or BAY11-7082 10 μM 2 hr, TNFα 20 ng/mL 5 min): diminished
degradation of IκBα following TNFα stimulation (IKKβ; TNFα 20 ng/mL, 10 min): inhibited the degradation of IκBβ
IκBα phosphorylation (IKKβ; with proteasome inhibitor MG-132 10 μM): decreased IκBβ phosphorylation

Cc1ccc(NCCCc2ccccc2)c(N)c1 [JSH-23, 4-Methyl-N1-(3-phenyl-propyl)-benzene-1,2-diamine]
TNFα-induced invasion (MDA-MB-468 cells): inhibition of MDA-MB-468 cell invasion

CCCCCCCCC(CCCCCCCCC(=O)O)[N+](=O)[O-] (stereo not drawn) [NO2—SA, 10-nitro-octadecanoic acid, reference compound]
cell cycle populations and regulatory proteins [2]: did not affect cell cycle populations
NF-κB-dependent transcription of luciferase [3]: no effect
TNBC cell growth (MDA-MB-231 cells [4]): did not affect TNBC cell growth
RelA protein abundance [5]: no effect
TNFα-induced invasion (MDA-MB-468 cells): marginal effects

CCCCCCCCC=CCCCCCCCC(=O)O [OA, octadec-9-enoic acid, reference compound]
NF-κB-dependent transcription of luciferase [3]: no effect
EC50 for growth inhibition, compared between compounds (MDA-MB-231 cells [1]): did not induce any growth inhibition

methyl-ethyl-4-nitro-oct-4-enedioate [CP-1]
EC50 for growth inhibition, compared between compounds (MDA-MB-231 cells [1]): lower EC50 than OA-NO2; also recorded: lowest EC50
concentration of PARP inhibitor needed for 50% tumor cell killing [6]: lowers the concentration of the PARP inhibitors
inhibition of homologous recombination [7]: inhibition of homologous recombination
